Measurements published in US20250360187A1, “HEPCIDIN MIMETICS FOR TREATMENT OF SICKLE CELL DISEASE” (Protagonist Therapeutics, Inc., priority 2022, published 2025).
Entries after “also recorded” stand apart in the source; their conditions may differ. Where a SMILES comes first, the peptide text is derived from it.

Test system: Townes SCD mice
Experiment: Efficacy study of hepcidin mimetics in a mouse model of sickle cell disease (CBC, serum hemolysis biomarkers, spleen and liver weights)
Format: in vivo
Conditions: for % Retics / Abs Retics / HCT / HGB / MCH / MCHC / MCV / RBC / LDH / Total bilirubin: 4 weeks, mean ± SD; for LDH / Total bilirubin: serum
Procedure: Compound 46, a hepcidin mimetic, was administered subcutaneously at 1.0 mg/kg (group 3, N=9) or 2.5 mg/kg (group 4, N=9) in Townes SCD mice. 36 Townes SCD and 6 129S1/SvlmJ (wild-type), female mice, 5 weeks old upon delivery. A control group of wild-type mice (groups 1, N=6) was treated with vehicle as well as another SCD mice (group 2, N=9). All mice were dosed three times per week (TIW). All mice were maintained on an iron-adjusted diet (TD.140258, 35 ppm iron) throughout the study. Collections and necropsies were performed 24 hours post-last dose of compound or vehicle. After 4 weeks on study, animals from each group were euthanized, EDTA whole blood collected for CBC and serum was collected for hemolysis biomarker analysis. Spleens and livers were weighed at terminus. Liver, spleen, kidney, heart and brain were collected for future analysis. Serum and urine were collected to analyze chemistry markers, such as bilirubin, LDH (lactate dehydrogenase), haptoglobin, urine creatinine, urine total protein and urine urea nitrogen.
As shown in FIG. 4A and FIG. 4B, reticulocytes were counted both with the automated analyzer as well as manually from a new methylene blue stained blood smear by counting the number of positive stained cells encountered in 500 erythrocytes and calculating the percentage.

[1] = SCD mice, compared to vehicle, across doses
[2] = Townes SCD mice, Dose 1 (1.0 mg/kg s.c. TIW)
[3] = Townes SCD mice, Dose 2.5 (2.5 mg/kg s.c. TIW)

## CCCCCCCCCCCCCCCC(=O)N[C@@H](CCC(=O)NCCCC[C@@H]1NC(=O)[C@H]([C@@H](C)CC)NC(=O)[C@@H](NC(=O)[C@@H]2CCCN2C(=O)[C@H](Cc2ccccc2)NC(=O)[C@H](Cc2cnc[nH]2)NC(=O)[C@@H](NC(=O)[C@H](CCC(=O)O)NC(=O)CC(C)C)[C@@H](C)O)CSSC[C@@H](C(=O)N[C@@H](CCCCN)C(N)=O)NC(=O)CNC(=O)[C@H](CCCCN)NC(=O)[C@H](CO)NC(=O)[C@H](CCCNC(=N)N)NC(=O)[C@@H]2CCCN2C(=O)[C@H](CCC(=O)O)NC(=O)[C@H](Cc2ccccc2)NC1=O)C(=O)O [Compound 46, Isovaleric_Acid-ETHFPCI(K(IsoGlu_Palm))FEPRSKGCK-NH2] (HELM PEPTIDE1{[CC(C)CC(=O)[*:2]].E.T.H.F.P.C.I.K.F.E.P.R.S.K.G.C.K.[am]}|PEPTIDE2{[CCCCCCCCCCCCCCCC(=O)[*:2]].[gGlu]}$PEPTIDE1,PEPTIDE2,9:R3-2:R2|PEPTIDE1,PEPTIDE1,7:R3-17:R3$$$V2.0)
SCD mice, 2.5 mg/kg dose
  RBC count (in words): significantly reduced
SCD mice, 2.5 mg/kg dose, compared to vehicle control
  Percent of reticulocytes (in words): decreased percent of reticulocytes significantly
SCD mice, 2.5 mg/kg, compared to vehicle control
  Mean corpuscular hemoglobin concentration (MCHC) (in words): significant increase in MCHC
SCD mice, across doses
  Hematocrit (HCT) (in words): significant reduction of HCT in a dose dependent manner
  Lymphocyte count (in words): significant WBC and lymphocyte reduction in a dose dependent manner; also recorded: alleviated elevated white blood cell (WBC) and lymphocytes counts
  Neutrophil count (in words): significantly decreased neutrophil count in a dose dependent manner; also recorded: alleviated elevated neutrophil and monocyte counts
  Serum lactate dehydrogenase (LDH) (in words): significantly reduced both parameters in a dose dependent manner
  Serum total bilirubin (in words): significantly reduced both parameters in a dose dependent manner
  White blood cell (WBC) count (in words): significant WBC and lymphocyte reduction in a dose dependent manner; also recorded: alleviated elevated white blood cell (WBC) and lymphocytes counts
SCD mice, across doses, compared to the vehicle group
  Mean corpuscular volume (MCV) (in words): significant reduction of MCV in a dose dependent manner
SCD mice, all three dose groups
  Hgb level (in words): significantly reduced in all three dose groups
SCD mice, compared to vehicle control
  Mean corpuscular hemoglobin (MCH) (in words): significant reduction in MCH
[1]
  Liver to body weight ratios (in words): significantly lower in a dose dependent manner
  Liver weight / liver size (in words): significantly lower in a dose dependent manner; also recorded: reduces liver size
  Spleen to body weight ratios (in words): significantly and dose-dependently lower
  Spleen weights / spleen size (in words): significantly and dose-dependently lower; also recorded: reduces spleen size
Townes SCD mice
  Monocyte count (in words): alleviated elevated neutrophil and monocyte counts
[2]
  % Retics: 65.78%
  Abs Retics: 2612 K/uL
  HCT: 29.62%
  HGB: 5.89 g/dL
  MCH: 9.89 pg
  MCHC: 19.82 g/dL
  MCV: 50.11 fL
  RBC: 5.94 M/uL
  LDH: 610.6 U/L
  Total bilirubin: 2.16 mg/dL
[3]
  % Retics: 50.33%
  Abs Retics: 1195 K/uL
  HCT: 16.27%
  HGB: 4.39 g/dL
  MCH: 9.82 pg
  MCHC: 23.22 g/dL
  MCV: 42.56 fL
  RBC: 4.49 M/uL
  LDH: 372.3 U/L
  Total bilirubin: 1.13 mg/dL
